Reference: US8246966B2, “Trypanosome microsome system and uses thereof” (priority 2006, dated 2012)
pIC50: −log10 of the molar value.

Columns and labels:
[1] = tested on: Blood stream form T. brucei CA427; test: Trypanocidal activity against cultured blood stream form T. brucei (Example 2); format: cell-based, Trypanosoma brucei; conditions: for pIC50: read-out: concentration at which fifty percent of parasites were killed (IC50)
Protocol: Blood stream form T. brucei CA427 were grown in HMI-9 media to the cell density of 10^6. The cells were then transferred to 96 well plates with the addition of different concentrations of MAL3-101, MAL3-51, CJ-21,058 or equisetin. In controls, DMSO was added. Cell density was calculated at the end of 24 hours, and the graph was plotted.
Cell culture. Blood stream form T. brucei CA427 was cultured in HMI-9 medium (Hirumi and Hirumi, 1994, Parasitol Today; 10:80-84) to a maximum density of 10^6/ml. For use in drug sensitivity studies, cells were seeded at […], and one hundred microliters added to each well of a 96-well plate, with or without test compounds at stated concentrations, as discussed in Brief Descriptions of FIGS. 1-4. In controls, DMSO, the solvent for the compounds, was added. Cells were counted after 24 or 48 hours, using a hemocytometer, and the data graphed. All experiments were performed in triplicates.

[2] = tested on: T. brucei microsomes (TbRM); test: Import of full length VSG—117 into TbRM with T. brucei cytosol (Example 10); format: biochemical, Trypanosoma brucei
Protocol: FIGS. 18A and 18B. MAL3-101, equisetin, and CJ-21,058 inhibit VSG translocation into TbRM. FIG. 18A presents the protocol used for import of VSG—117. In FIG. 18B, VSG—117 mRNA was translated in rabbit reticulocyte lysate with 1.5 equivalents T. brucei cytosol pretreated with MAL3-101 (3 μM), MAL3-51 (10 μM), CJ-21,058 (20 μM) or equisetin (50 μM)) for 60 minutes. The reaction mixtures received cycloheximide (50 μg/ml, final concentration) and were incubated with TbRM (one equivalent). After incubation at 37° C. for 60 minutes, reaction mixtures were transferred to an ice-water bath and treated with proteinase K (30 μg/ml, final concentration) for 60 minutes. Proteins were resolved by SDS-PAGE and detected by phosphorimaging. Lane 1 is VSG—117 incubated with TbRM; lane 2 is VSG—117 digested with proteinase K after incubation with TbRM; lane 3 is VSG—117 incubated with MAL3-101 in the presence of TbRM; lane 4 is VSG—117 and TbRM incubated with MAL3-101 and then digested with proteinase K; lane 5 is VSG—117 incubated with MAL3-51 and TbRM; lane 6 is VSG—117 incubated with TbRM in the presence of equisetin; lane 7 is VSG—117 incubated with ThRM; lane 8 is VSG—117 incubated with equisetin and digested with proteinase K; lane 9 is VSG—117 incubated with CJ-21,058 and TbRM; lane 10 is VSG—117 incubated with TbRM and CJ-21,058 and digested with proteinase K. For quantitation, each proteasedigested sample was compared to a control experiment containing the drug but without protease addition. Thus, lane 2 is compared with lane 1 while lane 4 is compared to lane 3, and so on.
Protein Import Into TbRM. Two μg of RNA encoding VSG—117 (or VSG_MVAT7) was translated in 30 μl of a reaction mixture containing 15 μl rabbit reticulocyte lysate, 60 μM amino acid mixture (-Met, -Cys), and 2.4 μCi [^35S]Promix. […] The gels were dried, and radioactive polypeptides were detected with a phosphorimager (Personal Molecular Imager FX, (BioRad). Data were quantified with QuantityOne software (BioRad), and graphs were plotted with DeltaGraph (Red Rock software). […]

| SMILES | pIC50 ([1]; cultured T. brucei) | inhibition of import of VSG—117 into TbRM compared to DMSO control ([2]; CJ-21,058 (20 μM in FIG. 18B legend)) | trypanocidal activity (in words) [1] | concentration at which one hundred percent of parasites were killed (IC100) ([1]; cultured T. brucei) | VSG—117 protected from proteinase K ([2]; MAL3-101 present (3 μM in FIG. 18B legend), DMSO approximately 80%) | inhibition of VSG—117 translocation into TbRM ([2]; equisetin (50 μM in FIG. 18B legend)) |
| --- | --- | --- | --- | --- | --- | --- |
| C/C=C/C1C(C)=CC2CC(C)CCC2C1(C)/C(O)=C1/C(=O)C(CO)N(C)C1=O (centres unmarked) [CJ-21,058] | 5.15 | 70% |  |  |  |  |
| CCCCCCN(C(=O)CCCCCN1C(=O)NC(c2ccc(-c3ccccc3)cc2)C(C(=O)OCc2ccccc2)=C1C)C(C(=O)NCCCC)c1ccc(OCC(=O)OC)c(C(=O)OC)c1 (centres unmarked) [MAL3-101] | 6.90 |  | killed T. brucei at sub-micromolar level | 500 nM | 13% |  |
| C/C=C/[C@@H]1C=C[C@@H]2C[C@H](C)CC[C@H]2[C@]1(C)/C(O)=C1/C(=O)[C@H](CO)N(C)C1=O [equisetin] | 5.48 |  |  |  |  | 95% |
